Test results taken from US20260167623A1 (NIKANG THERAPEUTICS, INC., priority 2022, published 2026).

Assays:
CDK2 [1] = molecular target: T1, CDK2 (Homo sapiens, UniProt P24941); assay: Inhibition of CDK2: phospho-Rb (S807/811) HTRF measurement in OVCAR3 cells, 24 h; type: cell-based; conditions: 24 h compound treatment, read-out: pRB_OVCAR3_24h
T1 construct: High-Throughput Measurement of Cellular Endogenous CDK2; endogenous in cells; host or cells: OVCAR3
Method in brief: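 OVCAR3 cells, seeded overnight, were exposed to compounds at 0.3 to 10,000 nM for 24 h, then lysed. Rb S807/811 phosphorylation read by HTRF (665/620 nm ratio) after 4 h detection at room temperature; data normalized to DMSO and IC50 from four-parameter logistic fit.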

CDK2 [2] = molecular target: T1, CDK2; assay: High-throughput HTRF measurement of cellular endogenous CDK2 level (degradation, DC50/Dmax) in OVCAR3 cells, 6 h; type: cell-based; conditions: 6 h compound treatment, HTRF total CDK2, read-out: DC50_OVCAR3_6h
Method in brief: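 OVCAR3 cells were treated overnight after seeding with compounds at 0.03–1,000 nM for 6 h, then lysed. Total CDK2 was quantified by HTRF (d2- and Eu-cryptate anti-CDK2 antibodies, […] ratio) after overnight incubation at room temperature. Data normalized to DMSO (0%) and lysis buffer (100% degradation); DC50 from four-parameter logistic fit.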

Row | SMILES | IC50 (CDK2 [1]) | DC50 (CDK2 [2])
1 | Cn1nc(N2CCC(=O)NC2=O)c2ccc(C3CCN(CC4CCN(c5cc(F)cc(S(=O)(=O)N6CCC(Nc7ncc(Cl)cn7)CC6)c5)CC4)CC3)cc21 [Example 147, 1-(6-(1-((1-(3-((4-((5-chloropyrimidin-2-yl)amino)piperidin-1-yl)sulfonyl)-5-fluorophenyl)piperidin-4-yl)methyl)piperidin-4-yl)-1-methyl-1H-indazol-3-yl)dihydropyrimidine-2,4(1H,3H)-dione] | 0.001 to 0.1 µM | 0.001 to 0.01 µM
2 | Cn1nc(N2CCC(=O)NC2=O)c2ccc(C3CCN(CC4CCN(c5cc(S(=O)(=O)N6CCC(Nc7ncc(Cl)cn7)CC6)ccc5C#N)CC4)CC3)cc21 [Example 148, 4-((4-((5-chloropyrimidin-2-yl)amino)piperidin-1-yl)sulfonyl)-2-(4-((4-(3-(2,4-dioxotetrahydropyrimidin-1(2H)-yl)-1-methyl-1H-indazol-6-yl)piperidin-1-yl)methyl)piperidin-1-yl)benzonitrile] | 0.001 to 0.1 µM | 0.01 to 0.1 µM
3 | Cn1nc(N2CCC(=O)NC2=O)c2ccc(C3CCN(CC4CCN(c5cc(F)cc(S(=O)(=O)N6CCC(Nc7ncc(C(F)(F)F)cn7)CC6)c5)CC4)CC3)cc21 [Example 149, 1-(6-(1-((1-(3-fluoro-5-((4-((5-(trifluoromethyl)pyrimidin-2-yl)amino)piperidin-1-yl)sulfonyl)phenyl)piperidin-4-yl)methyl)piperidin-4-yl)-1-methyl-1H-indazol-3-yl)dihydropyrimidine-2,4(1H,3H)-dione] | 0.001 to 0.1 µM | 0.001 to 0.01 µM
4 | Cn1nc(N2CCC(=O)NC2=O)c2ccc(C3CCN(CC4CCN(c5cc(S(=O)(=O)N6CCC(Nc7ncc(Cl)cn7)CC6)ccc5C#N)CC4)CC3)c(F)c21 [Example 150, 4-((4-((5-chloropyrimidin-2-yl)amino)piperidin-1-yl)sulfonyl)-2-(4-((4-(3-(2,4-dioxotetrahydropyrimidin-1(2H)-yl)-7-fluoro-1-methyl-1H-indazol-6-yl)piperidin-1-yl)methyl)piperidin-1-yl)benzonitrile] | 0.001 to 0.1 µM | 0.01 to 0.1 µM
5 | Cn1c(=O)n(C2CCC(=O)NC2=O)c2cccc(C3CCN(CC4CCN(c5cc(S(=O)(=O)N6CCC(Nc7ncc(Cl)cn7)CC6)ccc5C#N)CC4)CC3)c21 (stereo not drawn) [Example 151, 4-((4-((5-chloropyrimidin-2-yl)amino)piperidin-1-yl)sulfonyl)-2-(4-((4-(1-(2,6-dioxopiperidin-3-yl)-3-methyl-2-oxo-2,3-dihydro-1H-benzo[d]imidazol-4-yl)piperidin-1-yl)methyl)piperidin-1-yl)benzonitrile] | 0.001 to 0.1 µM | 0.01 to 0.1 µM
6 | Cn1nc(N2CCC(=O)NC2=O)c2ccc(C3CCN(CC4CCN(c5cc(S(=O)(=O)N6CCC(Nc7ncc(C(F)(F)F)cn7)CC6)ccc5C#N)CC4)CC3)cc21 [Example 152, 2-(4-((4-(3-(2,4-dioxotetrahydropyrimidin-1(2H)-yl)-1-methyl-1H-indazol-6-yl)piperidin-1-yl)methyl)piperidin-1-yl)-4-((4-((5-(trifluoromethyl)pyrimidin-2-yl)amino)piperidin-1-yl)sulfonyl)benzonitrile] | 0.001 to 0.1 µM | 0.001 to 0.01 µM
7 | Cn1nc(N2CCC(=O)NC2=O)c2cc(F)c(C3CCN(CC4CCN(c5cc(S(=O)(=O)N6CCC(Nc7ncc(Cl)cn7)CC6)ccc5C#N)CC4)CC3)cc21 [Example 153, 4-((4-((5-chloropyrimidin-2-yl)amino)piperidin-1-yl)sulfonyl)-2-(4-((4-(3-(2,4-dioxotetrahydropyrimidin-1(2H)-yl)-5-fluoro-1-methyl-1H-indazol-6-yl)piperidin-1-yl)methyl)piperidin-1-yl)benzonitrile] | 0.001 to 0.1 µM | 0.01 to 0.1 µM
8 | Cn1nc(N2CCC(=O)NC2=O)c2ccc(C3CCN(CC4(O)CCN(c5cccc(S(=O)(=O)N6CCC(Nc7ncc(Cl)cn7)CC6)c5)CC4)CC3)cc21 [Example 162, 1-(6-(1-((1-(3-((4-((5-chloropyrimidin-2-yl)amino)piperidin-1-yl)sulfonyl)phenyl)-4-hydroxypiperidin-4-yl)methyl)piperidin-4-yl)-1-methyl-1H-indazol-3-yl)dihydropyrimidine-2,4(1H,3H)-dione] | 0.001 to 0.1 µM | 0.001 to 0.01 µM
9 | Cn1nc(N2CCC(=O)NC2=O)c2ccc(C3CCN(CC4CCN(c5ccc(S(=O)(=O)N6CCC(Nc7ncc(C(F)(F)F)cn7)CC6)cc5)CC4)CC3)cc21 [Example 165, 1-(1-methyl-6-(1-((1-(4-((4-((5-(trifluoromethyl)pyrimidin-2-yl)amino)piperidin-1-yl)sulfonyl)phenyl)piperidin-4-yl)methyl)piperidin-4-yl)-1H-indazol-3-yl)dihydropyrimidine-2,4(1H,3H)-dione] | 0.001 to 0.1 µM | 0.01 to 0.1 µM
10 | O=C1CCC(n2c(=O)oc3c(C4CCN(CC5CCN(c6cccc(S(=O)(=O)N7CCC(Nc8ncc(Cl)cn8)CC7)c6)CC5)CC4)cccc32)C(=O)N1 (stereo not drawn) [Example 168, 3-(7-(1-((1-(3-((4-((5-chloropyrimidin-2-yl)amino)piperidin-1-yl)sulfonyl)phenyl)piperidin-4-yl)methyl)piperidin-4-yl)-2-oxobenzo[d]oxazol-3(2H)-yl)piperidine-2,6-dione] | 0.001 to 0.1 µM | 0.01 to 0.1 µM
11 | Cn1c(=O)n(C2CCC(=O)NC2=O)c2cccc(C3CCN(CC4CCN(c5cc(F)cc(S(=O)(=O)N6CCC(Nc7ncc(OC(F)F)cn7)CC6)c5)CC4)CC3)c21 (stereo not drawn) [Example 174, 3-(4-(1-((1-(3-((4-((5-(difluoromethoxy)pyrimidin-2-yl)amino)piperidin-1-yl)sulfonyl)-5-fluorophenyl)piperidin-4-yl)methyl)piperidin-4-yl)-3-methyl-2-oxo-2,3-dihydro-1H-benzo[d]imidazol-1-yl)piperidine-2,6-dione] | 0.001 to 0.1 µM | 0.001 to 0.01 µM
12 | Cn1nc(N2CCC(=O)NC2=O)c2ccc(C3CCN(CC4CCN(c5cc(F)cc(S(=O)(=O)N6CCC(Nc7ncc(OC(F)F)cn7)CC6)c5)CC4)CC3)cc21 [Example 175, 1-(6-(1-((1-(3-((4-((5-(difluoromethoxy)pyrimidin-2-yl)amino)piperidin-1-yl)sulfonyl)-5-fluorophenyl)piperidin-4-yl)methyl)piperidin-4-yl)-1-methyl-1H-indazol-3-yl)dihydropyrimidine-2,4(1H,3H)-dione] | 0.1 to 0.5 µM | 0.01 to 0.1 µM
13 | Cn1c(=O)n(C2CCC(=O)NC2=O)c2ccc(C3CCN(CC4CCN(c5cccc(S(=O)(=O)N6CCC(Nc7ncc(C(F)(F)F)cn7)CC6)c5)CC4)CC3)cc21 (stereo not drawn) [Example 177, 3-(3-methyl-2-oxo-5-(1-((1-(3-((4-((5-(trifluoromethyl)pyrimidin-2-yl)amino)piperidin-1-yl)sulfonyl)phenyl)piperidin-4-yl)methyl)piperidin-4-yl)-2,3-dihydro-1H-benzo[d]imidazol-1-yl)piperidine-2,6-dione] | 0.001 to 0.1 µM | 0.001 to 0.01 µM
14 | Cn1c(=O)n(C2CCC(=O)NC2=O)c2cccc(C3CCN(CC4CCN(c5cc(F)cc(S(=O)(=O)N6CCC(Nc7ncc(Cl)cn7)CC6)c5)CC4)CC3)c21 (stereo not drawn) [Example 180, 3-(4-(1-((1-(3-((4-((5-chloropyrimidin-2-yl)amino)piperidin-1-yl)sulfonyl)-5-fluorophenyl)piperidin-4-yl)methyl)piperidin-4-yl)-3-methyl-2-oxo-2,3-dihydro-1H-benzo[d]imidazol-1-yl)piperidine-2,6-dione] | 0.1 to 0.5 µM | 0.01 to 0.1 µM
15 | Cn1c(=O)n(C2CCC(=O)NC2=O)c2cccc(C3CCN(CC4CCN(c5cc(S(=O)(=O)N6CCC(Nc7ncc(C(F)(F)F)cn7)CC6)ccc5C#N)CC4)CC3)c21 (stereo not drawn) [Example 181, 2-(4-((4-(1-(2,6-dioxopiperidin-3-yl)-3-methyl-2-oxo-2,3-dihydro-1H-benzo[d]imidazol-4-yl)piperidin-1-yl)methyl)piperidin-1-yl)-4-((4-((5-(trifluoromethyl)pyrimidin-2-yl)amino)piperidin-1-yl)sulfonyl)benzonitrile] | 0.001 to 0.1 µM | 0.001 to 0.01 µM
16 | Cn1c(=O)n(C2CCC(=O)NC2=O)c2cccc(C3CCN(Cc4cc(F)cc(S(=O)(=O)N5CCC(Nc6ncc(OC(F)F)cn6)CC5)c4)CC3)c21 (stereo not drawn) [Example 184, 3-(4-(1-(3-((4-((5-(difluoromethoxy)pyrimidin-2-yl)amino)piperidin-1-yl)sulfonyl)-5-fluorobenzyl)piperidin-4-yl)-3-methyl-2-oxo-2,3-dihydro-1H-benzo[d]imidazol-1-yl)piperidine-2,6-dione] | 0.001 to 0.1 µM | 0.001 to 0.01 µM
17 | Cn1nc(N2CCC(=O)NC2=O)c2ccc(C3CCN(CC4CCN(c5cc(S(=O)(=O)N6CCC(Nc7ncc(C(F)(F)F)cn7)CC6)ccc5C#N)CC4)CC3)c(F)c21 [Example 188, 2-(4-((4-(3-(2,4-dioxotetrahydropyrimidin-1(2H)-yl)-7-fluoro-1-methyl-1H-indazol-6-yl)piperidin-1-yl)methyl)piperidin-1-yl)-4-((4-((5-(trifluoromethyl)pyrimidin-2-yl)amino)piperidin-1-yl)sulfonyl)benzonitrile] | 0.001 to 0.1 µM | 0.01 to 0.1 µM
18 | CN(CCCN1CCC(c2cccc3c2n(C)c(=O)n3C2CCC(=O)NC2=O)CC1)c1cccc(S(=O)(=O)N2CCC(Nc3ncc(C(F)(F)F)cn3)CC2)c1 (stereo not drawn) [Example 190, 3-(3-methyl-4-(1-(3-(methyl(3-((4-((5-(trifluoromethyl)pyrimidin-2-yl)amino)piperidin-1-yl)sulfonyl)phenyl)amino)propyl)piperidin-4-yl)-2-oxo-2,3-dihydro-1H-benzo[d]imidazol-1-yl)piperidine-2,6-dione] | 0.001 to 0.1 µM | 0.01 to 0.1 µM
